According to PubChem BioAssay AID248 (DTP/NCI, 2004):
“And” between values parts separate entries of the source, which are not always exact repeats. Identical values can stand only once. Toxic doses and inconclusive results are not listed.

Test system: L1210 leukemia ip in BDF1 mice, survival T/C
Assay: NCI In Vivo Anticancer Drug Screen. Data for tumor model L1210 Leukemia (intraperitoneal) in B6D2F1 (BDF1) mice
Settings: endpoint: mean survival time, higher = longer survival
Outline: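 Tumor cells were implanted, animals were treated, and survival was followed. The result divides the treated measurement by the vehicle-control measurement.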

Structure (SMILES): NC(=O)c1cn(C2OC(CO)C(O)C2O)c2ncnc(N)c12 (centres undefined)
- T/C (dose: 0.1 mg/kg/injection, schedule: Q01DX Z (ip), vehicle: carboxymethylcellulose (CMC)): 123 % of control
- T/C (dose: 0.12 mg/kg/injection, schedule: Q01DX009 (ip), vehicle: saline): 118 % of control
- T/C (dose: 0.16 mg/kg/injection, schedule: Q01DX009 (ip), vehicle: saline): 119 % of control
- T/C (dose: 0.16 mg/kg/injection, schedule: Q#A X034 (ip), vehicle: carboxymethylcellulose (CMC)): 116 % of control
- T/C (dose: 0.19 mg/kg/injection, schedule: Q01DX005 (ip), vehicle: saline): 123 % of control
- T/C (dose: 0.19 mg/kg/injection, schedule: Q01DX009 (ip), vehicle: saline): 121 % of control
- T/C (dose: 0.2 mg/kg/injection, schedule: Q01DX Z (ip), vehicle: carboxymethylcellulose (CMC)): 121 % of control
- T/C (dose: 0.25 mg/kg/injection, schedule: Q01DX001 (sc), vehicle: saline): 100 % of control
- T/C (dose: 0.32 mg/kg/injection, schedule: Q01DX017 (ip), vehicle: carboxymethylcellulose (CMC)): 94 % of control
- T/C (dose: 0.32 mg/kg/injection, schedule: Q02DX009 (ip), vehicle: carboxymethylcellulose (CMC)): 100 % of control
- T/C (dose: 0.32 mg/kg/injection, schedule: Q04DX005 (ip), vehicle: carboxymethylcellulose (CMC)): 104 % of control
- T/C (dose: 0.32 mg/kg/injection, schedule: Q#A X034 (ip), vehicle: carboxymethylcellulose (CMC)): 104 % of control
- T/C (dose: 0.37 mg/kg/injection, schedule: Q01DX009 (ip), vehicle: Klucel (hydroxypropylcellulose) (HPC)): 107 % of control
- T/C (dose: 0.39 mg/kg/injection, schedule: Q01DX009 (ip), vehicle: saline): 108 % of control
- T/C (dose: 0.5 mg/kg/injection, schedule: Q01DX001 (sc), vehicle: saline): 98 % of control
- T/C (dose: 0.5 mg/kg/injection, schedule: Q01DX005 (ip), vehicle: saline): 157 % of control
- T/C (dose: 0.5 mg/kg/injection, schedule: Q01DX010 (oral), vehicle: saline): 97 % of control
- T/C (dose: 0.5 mg/kg/injection, schedule: Q## X003 (ip), vehicle: saline): 114 % of control
- T/C (dose: 0.62 mg/kg/injection, schedule: Q01DX001 (ip), vehicle: carboxymethylcellulose (CMC)): 94 % of control
- T/C (dose: 0.62 mg/kg/injection, schedule: Q01DX017 (ip), vehicle: carboxymethylcellulose (CMC)): 105 % of control
- T/C (dose: 0.62 mg/kg/injection, schedule: Q02DX009 (ip), vehicle: carboxymethylcellulose (CMC)): 101 % of control
- T/C (dose: 0.62 mg/kg/injection, schedule: Q04DX005 (ip), vehicle: carboxymethylcellulose (CMC)): 113 % of control
- T/C (dose: 0.62 mg/kg/injection, schedule: Q08DX003 (ip), vehicle: carboxymethylcellulose (CMC)): 105 % of control
- T/C (dose: 0.62 mg/kg/injection, schedule: Q#A X034 (ip), vehicle: carboxymethylcellulose (CMC)): 101 % of control
- T/C (dose: 0.65 mg/kg/injection, schedule: Q01DX001 (ip), vehicle: water): 122 % of control
- T/C (dose: 0.75 mg/kg/injection, schedule: Q01DX009 (ip), vehicle: saline): 112 % of control and 117 % of control
- T/C (dose: 0.78 mg/kg/injection, schedule: Q01DX009 (ip), vehicle: saline): 108 % of control and 123 % of control
- T/C (dose: 0.8 mg/kg/injection, schedule: Q01DX Z (ip), vehicle: water): 123 % of control
- T/C (dose: 1.0 mg/kg/injection, schedule: Q01DX001 (sc), vehicle: saline): 102 % of control and 104 % of control
- T/C (dose: 1.0 mg/kg/injection, schedule: Q01DX005 (ip), vehicle: saline): 165 % of control
- T/C (dose: 1.0 mg/kg/injection, schedule: Q01DX006 (iv), vehicle: saline): 111 % of control
- T/C (dose: 1.0 mg/kg/injection, schedule: Q01DX010 (oral), vehicle: saline): 103 % of control
- T/C (dose: 1.0 mg/kg/injection, schedule: Q01DX Z (im), vehicle: saline): 109 % of control
- T/C (dose: 1.0 mg/kg/injection, schedule: Q01DX Z (ip), vehicle: carboxymethylcellulose (CMC)): 120 % of control
- T/C (dose: 1.0 mg/kg/injection, schedule: Q03DX005 (ip), vehicle: other): 162 % of control
- T/C (dose: 1.0 mg/kg/injection, schedule: Q## X008 (ip), vehicle: saline): 150 % of control
- T/C (dose: 1.25 mg/kg/injection, schedule: Q01DX001 (ip), vehicle: carboxymethylcellulose (CMC)): 119 % of control
- T/C (dose: 1.25 mg/kg/injection, schedule: Q01DX017 (ip), vehicle: carboxymethylcellulose (CMC)): 89 % of control
- T/C (dose: 1.25 mg/kg/injection, schedule: Q02DX009 (ip), vehicle: carboxymethylcellulose (CMC)): 103 % of control
- T/C (dose: 1.25 mg/kg/injection, schedule: Q04DX005 (ip), vehicle: carboxymethylcellulose (CMC)): 110 % of control
- T/C (dose: 1.25 mg/kg/injection, schedule: Q08DX003 (ip), vehicle: carboxymethylcellulose (CMC)): 106 % of control
- T/C (dose: 1.5 mg/kg/injection, schedule: Q01DX009 (ip), vehicle: Klucel (hydroxypropylcellulose) (HPC)): 98 % of control
- T/C (dose: 1.5 mg/kg/injection, schedule: Q01DX009 (ip), vehicle: saline with Tween-80): 114 % of control and 118 % of control
- T/C (dose: 1.5 mg/kg/injection, schedule: Q01DX009 (ip), vehicle: saline): 112 % of control
- T/C (dose: 1.5 mg/kg/injection, schedule: Q01DX Z (ip), vehicle: carboxymethylcellulose (CMC)): 108 % of control
- T/C (dose: 1.5 mg/kg/injection, schedule: Q01DX Z (ip), vehicle: water): 101 % of control
- T/C (dose: 1.56 mg/kg/injection, schedule: Q01DX005 (ip), vehicle: saline): 90 % of control
- T/C (dose: 1.6 mg/kg/injection, schedule: Q01DX009 (ip), vehicle: saline): 108 % of control
- T/C (dose: 1.8 mg/kg/injection, schedule: Q01DX Z (ip), vehicle: water): 152 % of control
- T/C (dose: 2.0 mg/kg/injection, schedule: Q01DX001 (sc), vehicle: saline): 103 % of control and 108 % of control
- T/C (dose: 2.0 mg/kg/injection, schedule: Q01DX006 (iv), vehicle: saline): 115 % of control
- T/C (dose: 2.0 mg/kg/injection, schedule: Q01DX009 (ip), vehicle: saline): 96 % of control and 100 % of control
- T/C (dose: 2.0 mg/kg/injection, schedule: Q01DX010 (oral), vehicle: saline): 104 % of control
- T/C (dose: 2.0 mg/kg/injection, schedule: Q01DX Z (im), vehicle: saline): 117 % of control
- T/C (dose: 2.0 mg/kg/injection, schedule: Q01DX Z (ip), vehicle: carboxymethylcellulose (CMC)): 105 % of control
- T/C (dose: 2.0 mg/kg/injection, schedule: Q03DX005 (ip), vehicle: other): 155 % of control
- T/C (dose: 2.0 mg/kg/injection, schedule: Q## X003 (ip), vehicle: saline): 220 % of control
- T/C (dose: 2.0 mg/kg/injection, schedule: Q## X008 (ip), vehicle: saline): 157 % of control
- T/C (dose: 2.0 mg/kg/injection, schedule: Q## X024 (ip), vehicle: saline): 155 % of control
- T/C (dose: 2.4 mg/kg/injection, schedule: Q01DX009 (ip), vehicle: saline): 96 % of control
- T/C (dose: 2.5 mg/kg/injection, schedule: Q01DX001 (ip), vehicle: carboxymethylcellulose (CMC)): 165 % of control
- T/C (dose: 2.5 mg/kg/injection, schedule: Q02DX009 (ip), vehicle: carboxymethylcellulose (CMC)): 90 % of control
- T/C (dose: 2.5 mg/kg/injection, schedule: Q04DX005 (ip), vehicle: carboxymethylcellulose (CMC)): 118 % of control
- T/C (dose: 2.7 mg/kg/injection, schedule: Q01DX Z (ip), vehicle: water): 161 % of control
- T/C (dose: 3.0 mg/kg/injection, schedule: Q01DX001 (ip), vehicle: water): 157 % of control
- T/C (dose: 3.0 mg/kg/injection, schedule: Q01DX009 (ip), vehicle: saline with Tween-80): 110 % of control
- T/C (dose: 3.0 mg/kg/injection, schedule: Q01DX Z (ip), vehicle: water): 104 % of control
- T/C (dose: 3.0 mg/kg/injection, schedule: Q03DX005 (ip), vehicle: other): 157 % of control and 170 % of control
- T/C (dose: 4.0 mg/kg/injection, schedule: Q01DX001 (ip), vehicle: clinical formulation): 159 % of control
- T/C (dose: 4.0 mg/kg/injection, schedule: Q01DX001 (sc), vehicle: saline): 102 % of control and 107 % of control
- T/C (dose: 4.0 mg/kg/injection, schedule: Q01DX006 (iv), vehicle: saline): 91 % of control
- T/C (dose: 4.0 mg/kg/injection, schedule: Q01DX010 (oral), vehicle: saline): 101 % of control
- T/C (dose: 4.0 mg/kg/injection, schedule: Q01DX Z (im), vehicle: saline): 108 % of control
- T/C (dose: 4.0 mg/kg/injection, schedule: Q## X008 (ip), vehicle: saline): 170 % of control
- T/C (dose: 4.0 mg/kg/injection, schedule: Q## X024 (ip), vehicle: saline): 97 % of control
- T/C (dose: 5.0 mg/kg/injection, schedule: Q01DX001 (ip), vehicle: water): 185 % of control
- T/C (dose: 5.0 mg/kg/injection, schedule: Q01DX001 (oral), vehicle: saline): 102 % of control and 103 % of control
- T/C (dose: 5.0 mg/kg/injection, schedule: Q03DX005 (ip), vehicle: other): 162 % of control
- T/C (dose: 5.0 mg/kg/injection, schedule: Q08DX003 (ip), vehicle: carboxymethylcellulose (CMC)): 121 % of control
- T/C (dose: 8.0 mg/kg/injection, schedule: Q## X003 (ip), vehicle: saline): 109 % of control
- T/C (dose: 8.0 mg/kg/injection, schedule: Q## X008 (ip), vehicle: saline): 195 % of control
- T/C (dose: 10.0 mg/kg/injection, schedule: Q01DX001 (oral), vehicle: saline): 105 % of control
- T/C (dose: 16.0 mg/kg/injection, schedule: Q01DX001 (ip), vehicle: saline): 102 % of control
- T/C (dose: 20.0 mg/kg/injection, schedule: Q01DX001 (oral), vehicle: saline): 112 % of control
